# From patent US10588896B2, “Agents for the treatment of retroviral infectious diseases” (IMMUNOLOGIK GMBH, priority 2014, dated 2020)
# “Also recorded” adds a separate entry of the source. Read-outs that look alike come from different tables or passages of the source.
# Assays:
# HIV-1NL4-3 (R5 tropic) = experiment: HIV-1 replication in infected PBMC cultures (macrophages), reverse transcriptase activity in supernatant; format: cell-based; settings: for reduction of the HIV-1 replication capacity: 5 donors
# Text: As could be shown in the preceding example that PR-619 inhibits the late processes in Gag processing this effect on the spread of infection was investigated. According to the invention, isolated primary human peripheral blood mononuclear cell (PBMC) cultures were infected to this aim with the virus strain HIV-1NL4-3(X4 tropic) or HIV-1 NLNL4-3(R5 tropic). One day after infection cells were washed with PBS (phosphate buffer saline), provided with fresh medium containing the DUB inhibitor PR-619 in several non-cytotoxic concentrations (3.5 μM, 7 μM, 14 μM, 28 μM). The treatment with DUB inhibitors was carried out over the entire experimental period (“permanent treatment”) or only on Day 1 and Day 3 after infection (“structured treatment”). In the infection with HIV-1NL4-3 (R5 tropic), only a permanent treatment was performed. Each 2-3 days samples from the cell culture supernatants were taken, frozen and later on used for determining reverse transcriptase activity. Concomitantly, 80% of the cell culture medium was replaced and fresh PR-619 was added. Reverse transcriptase activity (ccpm) was determined in the cell-free cell culture supernatants and plotted against time (FIGS. 4A and 4B; the black arrows indicate the treatment with PR-619).
# In permanent treatment 3.5 μM yielded a reduction by 35%(±8%), 7 μM a reduction by 60%(±9%) and 14 μM by 100%.
# For comparative purposes, the anti-retroviral effect found for PR-619 was compared with three other DUB inhibitors P005091, WP1130 and P22077. Experiments were carried out as described in Example 2.
# In order to clarify the question whether a combined permanent treatment with PR-619 and the proteasome inhibitor bortezomib (Velcade®) causes a synergistic effect on the replication capacity of HIV-1, a cross titration was carried out with both substances (analogous to Example 2 and 3). Herein, PBMC cultures were treated permanently after infection with the virus strain HIV-1NL4-3, first only with the DUB inhibitor PR-619 or with the proteasome inhibitor bortezomib in non-toxic increasing concentrations (PR-619: 0.3 μM, 0.9 μM, 2.75 μM and 8 μM; bortezomib: 0.6 nM, 1.5 nM, 5.3 nM and 16 nM).
# Herein, the cells were treated permanently with constantly 0.6 nM bortezomib and increasing concentrations of PR-619 (0.3 μM, 0.9 μM, 2.7 μM and 8 μM). Experiments were carried out as described in Example 2. […] The DUB inhibitor PR-619 is able to inhibit the HIV-1 replication beginning with a concentration of 2.7 μM (FIG. 12B).
# HIV-1NL4-3 (X4 tropic) = experiment: HIV-1 replication in infected PBMC cultures (T cells), reverse transcriptase activity in supernatant; format: cell-based; settings: for HIV-1 replication / inhibition of the HIV-1 replication / reduction of the HIV-1 replication capacity (AUC) / concentration beginning with which HIV-1 replication is inhibited: T cells; for HIV-1 replication: structured and permanent treatment; for reduction of the HIV-1 replication capacity (AUC): 6 donors; for concentration beginning with which HIV-1 replication is inhibited: substance alone
# Protocol: According to the invention, isolated primary human peripheral blood mononuclear cell (PBMC) cultures were infected to this aim with the virus strain HIV-1NL4-3(X4 tropic) or HIV-1 NLNL4-3(R5 tropic). […] The treatment with DUB inhibitors was carried out over the entire experimental period (“permanent treatment”) or only on Day 1 and Day 3 after infection (“structured treatment”). In the infection with HIV-1NL4-3 (R5 tropic), only a permanent treatment was performed. Each 2-3 days samples from the cell culture supernatants were taken, frozen and later on used for determining reverse transcriptase activity. Concomitantly, 80% of the cell culture medium was replaced and fresh PR-619 was added. Reverse transcriptase activity (ccpm) was determined in the cell-free cell culture supernatants and plotted against time (FIGS. 4A and 4B; the black arrows indicate the treatment with PR-619).
# For six different donors the area under the curve (AUC) in the HIV-1 replication profiles after infection of PBMCs with T-cell tropic virus was determined, representing the HIV-1 replication capacity.
# Experiments were carried out as described in Example 2. […]
# [1] = test system: HIV-1 Gag structure proteins; experiment: Western Blot analysis of HIV-1 Gag processing in HeLa cells transfected with pNLΔenv (cell and VLP fraction); format: cell-based
# Protocol: In order to investigate whether PR-619 and its derivatives inhibit the processing of HIV-1 Gag structure proteins, Western Blot (WB) analyses were carried out. Therefore, HeLa cell cultures were transfected with the pNLΔenv plasmid which encodes for HIV-1 proteins excluding the env envelope proteins. This enables the production of virus-like particles (VLPs), an established in vitro model in HIV-1 research. 24 h after transfection the cells were transferred to reaction vessels, and a pre-incubation with PR-619 for 1 h was performed. Thereupon, the cells were washed three times with PBS and incubated for 4 h in fresh RPMI medium either with 20 μM PR-619 (Merck-Millipore) or with the corresponding amount of DMSO as solvent control at 37° C.
# Then a separation into a cell and a VLP fraction was effected by means of centrifugation. VLPs were purified from the cell culture supernatants via a 20% sucrose cushion. Cells were then washed with PBS and lysed with RIPA buffer. Protein concentrations were determined by means of Bradford protein assays and assimilated for the respective lysates. […]
# A densitometric evaluation of Gag processing in the VLP fraction was carried out with the analysis program AIDA®. The densitometric evaluation allows for the quantification of signal intensities in Western Blot and thus conclusions on the quantity of a certain protein in the sample. […]
# HLAC cultures = experiment: WST assay cytotoxicity in HLAC cultures from ex vivo tonsillar tissue; format: cell-based, human
# [2] = test system: MHC-I antigen presentation of Gag-derived epitopes; experiment: MHC-I antigen presentation of Gag-derived SL epitope in HeLa-Kb cells, FACS with mAB 25D1.16; format: cell-based, human; settings: HeLa-Kb cells transfected with Gag-SL, 7 and 14 μM, dose-dependent
# Text: Since there is no conformation-dependent MHC-I specific antibody that could detect Gag epitopes bound to human MHC-I molecules the ovalbumin-derived sequence […] (SL) was introduced as a model epitope into the non-structured SP1 spacer region of Gag. For measuring the MHC-I antigen presentation, HeLa cells constitutively expressing the murine SL-binding MHC-I allotype H2-Kb (HeLa-Kb) (Porgador et al., 1997, Immunity 6(6), 715-726) were transfected with expression plasmids coding for Gag-SL proteins. Performing flow cytometric analyses the monoclonal antibody (mAB) 25D1.16 was used which recognizes specifically SL in the complex with H2-Kb.
# 24 h after transfection the cells were incubated overnight with different concentrations of the DUB inhibitor PR-619 (7 and 14 μM).
# Then, an acid wash (acid washing buffer pH 3) was carried out for removing the H2-Kb-SL complexes from the cell surface. Thereafter, the cells were incubated with and without PR-619 for 4 h at 37° C. and then the newly loaded H2-Kb-SL complexes at the cell surface under inhibition with PR-619 were determined by FACS analysis with the monoclonal AB 25D1.16. For compensating possible differences in the expression level of Gag-SL, the mean fluorescence intensity (MFI) of the 25D1.16 staining was normalized to the MFI of the intracellular Gag signal.
# [3] = test system: HIV-1NL4-3 (X4-tropic) or HIV-1NL4-3 (R5-tropic); experiment: HIV-1 replication in human lymphoid aggregate culture (HLAC) ex vivo tonsillar tissue; format: cell-based; settings: for reduction of the HIV-1 replication capacity: T cells and macrophages, permanent treatment, 3 replication profiles
# Protocol: In order to substantiate the inhibition of the HIV replication under treatment with PR-619, as observed in Example 2, according to the invention human ex vivo cultivated tonsillar tissue was infected with the virus strain HIV-1NL4-3 (X4-tropic) or HIV-1NL4-3 (R5-tropic). The experiments were carried out as described in Example 2.
smiles,measurement,setting,value
"CCC[C@H](NC(=O)/C(C#N)=C/c1cccc(Br)n1)c1ccccc1 [WP1130, (2E)-3-(6-bromo-2-pyridinyl)-2-cyano-N-[(1S)-1-phenylbutyl]-2-propenamide, reference compound]",HIV-1 replication,HIV-1NL4-3 (R5 tropic); 3 μM and 6 μM,no significant reduction of the HIV-1 replication
same,HIV-1 replication,HIV-1NL4-3 (X4 tropic); 3 μM and 6 μM,no significant reduction of the HIV-1 replication
same,toxicity (WST assay),"PBMC cultures; concentration >3 μM, day 13",complete death of the cells
same,reduction in living cells,"PBMC cultures; permanent treatment, 3 μM, day 13",40%
"CC(=O)c1cc([N+](=O)[O-])c(Sc2ccc(F)cc2F)s1 [P22077, reference compound]",HIV replication,"HIV-1NL4-3 (X4 tropic); 7.5 μM, 15 μM, 30 μM and 60 μM",nearly complete inhibition of HIV replication
same,general cytotoxic damage of the host cell,"PBMC cultures; 7.5 μM, 15 μM, 30 μM and 60 μM",does not exist
"CC(=O)c1cc([N+](=O)[O-])c(Sc2cccc(Cl)c2Cl)s1 [P005091, 1-[5-[(2,3-dichlorophenyl)thio]-4-nitro-2-thienyl]-ethanone, reference compound]",HIV-1 replication,"HIV-1NL4-3 (R5 tropic); 0.75 μM, 1.5 μM and 3 μM",does not inhibit HIV-1 replication
same,HIV-1 replication,"HIV-1NL4-3 (X4 tropic); 0.75 μM, 1.5 μM and 3 μM",does not inhibit HIV-1 replication
same,toxicity (WST assay),"PBMC cultures; 0.75-3 μM, day 13",shows no toxicity
"N#CSc1cc(SC#N)c(N)nc1N [PR-619, 2,6-diaminopyridine-3,5-bis(thiocyanate)]",Gag processing (Western Blot),"[1]; 20 μM PR-619, 4 h, HeLa cells transfected with pNLΔenv",significantly inhibits Gag processing
same,"generation of the main Gag processing product CA (densitometric evaluation, VLP fraction)","[1]; 20 μM PR-619, VLP fraction",clearly inhibited
same,reduction of the HIV-1 replication capacity,"HIV-1NL4-3 (R5 tropic); permanent treatment, 3.5 μM",35%(±8%)
same,reduction of the HIV-1 replication capacity,"HIV-1NL4-3 (R5 tropic); permanent treatment, 7 μM",60%(±9%)
same,reduction of the HIV-1 replication capacity,"HIV-1NL4-3 (R5 tropic); permanent treatment, 14 μM",100%
same,toxic effect (WST assay),"HLAC cultures; all applied antiretrovirally effective concentrations, 15 days",did not display any significant toxic effect
same,toxic effects (WST assay),HLAC cultures; highest concentration of 10 μM,no toxic effects were observed
same,increase of MHC-I antigen presentation of Gag-derived epitopes,[2],6 fold
same,antiviral efficacy (concentration),HIV-1NL4-3 (X4 tropic); PBMC,about 3.5 μM
same,inhibition of the HIV-1 replication,"HIV-1NL4-3 (X4 tropic); 3.5 μM, permanent treatment",complete
same,inhibition of the HIV-1 replication,"HIV-1NL4-3 (X4 tropic); 3.5 μM, structured treatment",clear
same,reduction of the HIV-1 replication capacity (AUC),"HIV-1NL4-3 (X4 tropic); permanent treatment, 3.5 μM",50%(±16%)
same,reduction of the HIV-1 replication capacity (AUC),"HIV-1NL4-3 (X4 tropic); permanent treatment, 7 μM",97%(±15%)
same,reduction of the HIV-1 replication capacity (AUC),"HIV-1NL4-3 (X4 tropic); permanent treatment, 14 μM",100%
same,concentration beginning with which HIV-1 replication is inhibited,HIV-1NL4-3 (X4 tropic); permanent treatment,2700 nM
same,reduction of the HIV-1 replication capacity (AUC),"HIV-1NL4-3 (X4 tropic); structured treatment, 3.5 μM",23%(±14%)
same,reduction of the HIV-1 replication capacity (AUC),"HIV-1NL4-3 (X4 tropic); structured treatment, 7 μM",94%(±14%)
same,reduction of the HIV-1 replication capacity (AUC),"HIV-1NL4-3 (X4 tropic); structured treatment, 14 μM",100%
same,inhibitory effect on the HIV-1 replication,[3]; 1.25 μM,did not exert an inhibitory effect
same,inhibition of the replication,"[3]; 2.5 μM, 5 μM and 10 μM","clear, respectively complete inhibition of the replication"
same,reduction of the HIV-1 replication capacity,[3]; 2.5 μM,40%(±9%)
same,reduction of the HIV-1 replication capacity,[3]; 5 μM,86%(±2%)
same,reduction of the HIV-1 replication capacity,[3]; 10 μM,completely
same,concentration at which a clear toxic effect starts,"PBMC cultures; PBMC, 15 days",28 µM
same,toxic effect (WST assay),"PBMC cultures; antivirally effective concentrations, observation period of 15 days",did not display any significant toxic effect; also recorded: does not display a significant toxic effect
same,toxic effect (WST assay),"PBMC cultures; highest used concentration of 8 μM, permanent treatment",did not show either a clear toxic effect
"COc1ccc(C[C@H](NC(=O)[C@H](C)NC(=O)CN2CCOCC2)C(=O)N[C@@H](Cc2ccccc2)C(=O)[C@@]2(C)CO2)cc1 [PR-957, reference compound]",concentration beginning with which HIV-1 replication is inhibited,HIV-1NL4-3 (X4 tropic); permanent treatment,80 nM
same,toxicity (WST assay),"PBMC cultures; 20-160 nM, permanent treatment",did not display any toxicity
"CC(C)C[C@H](NC(=O)[C@H](Cc1ccccc1)NC(=O)c1cnccn1)B(O)O [bortezomib, reference compound]",concentration beginning with which HIV-1 replication is inhibited,"HIV-1NL4-3 (R5 tropic); permanent treatment, substance alone",5.3 nM
same,concentration beginning with which HIV-1 replication is inhibited,HIV-1NL4-3 (X4 tropic); permanent treatment,5.3 nM
same,reduction in living cells,"PBMC cultures; 16 nM, permanent treatment",60%
same,toxicity (WST assay),"PBMC cultures; 0.6-5.3 nM, permanent treatment",did not display any toxicity
